Assay results from US6645991B1, “αvβ3 integrin inhibitors” (Merck Patent GmbH, priority 1999, dated 2003).

Molecular target: receptor αvβ3 (Homo sapiens, UniProt P05106+P06756)
Experiment: vitronectin binding test (method of Smith et al.)
Text: For the vitronectin binding test, the IC50 value is given, i.e. the concentration in nmol/litre which inhibits 50% of the vitronectin binding to the corresponding isolated receptor (method of Smith et al., J. Biol. Chem. 265, 12267-71, 1990).

receptor αvβ3, sequence (P06756 31-889 limits assumed): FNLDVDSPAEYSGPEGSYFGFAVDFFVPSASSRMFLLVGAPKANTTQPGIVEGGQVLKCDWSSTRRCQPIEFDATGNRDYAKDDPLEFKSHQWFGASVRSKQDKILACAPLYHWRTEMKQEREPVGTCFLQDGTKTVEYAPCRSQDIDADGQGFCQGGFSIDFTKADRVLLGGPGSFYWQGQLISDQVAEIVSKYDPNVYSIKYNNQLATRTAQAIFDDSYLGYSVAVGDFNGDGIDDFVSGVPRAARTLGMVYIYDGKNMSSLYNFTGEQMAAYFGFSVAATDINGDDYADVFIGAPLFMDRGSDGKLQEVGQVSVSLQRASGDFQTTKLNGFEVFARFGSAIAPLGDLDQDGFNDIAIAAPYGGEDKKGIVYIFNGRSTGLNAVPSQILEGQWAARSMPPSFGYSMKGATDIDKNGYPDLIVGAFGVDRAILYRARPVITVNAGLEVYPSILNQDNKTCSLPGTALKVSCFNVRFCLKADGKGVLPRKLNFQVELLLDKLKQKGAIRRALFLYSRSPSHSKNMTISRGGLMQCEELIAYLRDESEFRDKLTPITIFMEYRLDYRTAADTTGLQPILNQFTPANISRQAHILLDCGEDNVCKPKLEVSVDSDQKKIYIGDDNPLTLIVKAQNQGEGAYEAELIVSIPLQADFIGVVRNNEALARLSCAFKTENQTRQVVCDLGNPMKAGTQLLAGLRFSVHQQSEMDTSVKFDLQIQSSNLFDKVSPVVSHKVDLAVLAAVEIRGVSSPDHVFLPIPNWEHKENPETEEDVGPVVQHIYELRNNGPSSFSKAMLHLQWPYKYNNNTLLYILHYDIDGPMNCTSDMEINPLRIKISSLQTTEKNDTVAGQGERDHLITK
receptor αvβ3, sequence (P06756 891-1048 limits assumed): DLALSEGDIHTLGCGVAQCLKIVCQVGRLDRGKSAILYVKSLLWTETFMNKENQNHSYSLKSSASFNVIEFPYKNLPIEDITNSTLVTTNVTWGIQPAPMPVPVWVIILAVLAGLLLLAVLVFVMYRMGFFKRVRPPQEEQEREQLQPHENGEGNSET
receptor αvβ3, sequence (P05106 27-788): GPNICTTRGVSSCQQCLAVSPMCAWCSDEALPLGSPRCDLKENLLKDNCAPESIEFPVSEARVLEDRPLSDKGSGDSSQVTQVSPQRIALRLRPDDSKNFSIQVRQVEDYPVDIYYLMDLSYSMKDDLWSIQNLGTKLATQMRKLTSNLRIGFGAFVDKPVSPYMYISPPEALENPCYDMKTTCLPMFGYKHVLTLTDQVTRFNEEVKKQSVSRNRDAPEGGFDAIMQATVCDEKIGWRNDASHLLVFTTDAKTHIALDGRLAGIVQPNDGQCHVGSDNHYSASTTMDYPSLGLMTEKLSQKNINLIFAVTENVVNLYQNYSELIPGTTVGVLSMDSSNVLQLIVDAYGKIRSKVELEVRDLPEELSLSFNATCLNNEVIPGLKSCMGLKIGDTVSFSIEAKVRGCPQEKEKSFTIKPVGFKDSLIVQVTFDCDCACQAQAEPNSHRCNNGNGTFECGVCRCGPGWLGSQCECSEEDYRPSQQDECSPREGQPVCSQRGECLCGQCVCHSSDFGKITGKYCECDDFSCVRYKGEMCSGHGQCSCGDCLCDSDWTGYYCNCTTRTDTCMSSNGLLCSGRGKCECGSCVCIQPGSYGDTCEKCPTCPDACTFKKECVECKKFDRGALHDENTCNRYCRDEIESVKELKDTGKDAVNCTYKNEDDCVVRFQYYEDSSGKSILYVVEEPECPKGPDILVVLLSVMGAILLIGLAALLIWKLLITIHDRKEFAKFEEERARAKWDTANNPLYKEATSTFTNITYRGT

IC50 (concentration which inhibits 50% of the vitronectin binding to the isolated receptor): 5.3 nM
Inhibition of vitronectin binding to the receptor αvβ3 (qualitative statement): demonstrated experimentally
Compound: O=C(O)CC(Cc1ccc(OCCCNc2ccccn2)cc1)c1ccccc1 (centres unmarked) [3-phenyl-4-{4-[3-(pyridin-2-ylamino)propoxy]phenyl}butyric acid]
